Data taken from patent US9617237B2, “Partially saturated tricyclic compounds and methods of making and using same” (Zafgen, Inc., priority 2011, dated 2017).
pIC50: −log10 of the molar value.

biological target: T1, recombinant human MetAP2 (Homo sapiens, UniProt P50579); assay: Inhibition of recombinant human MetAP2 activity (fluorescence, MAS substrate, amino acid oxidase/Amplex red); format: biochemical; conditions: manganese enzyme; 0.75 mM Methionine-Alanine-Serine (MAS) substrate; 30 minutes at 25° C.; pH 7.5; 1% DMSO
T1 construct: made in house; host or cells: Sf9 insect cells
T1 sequence (P50579 whole entry): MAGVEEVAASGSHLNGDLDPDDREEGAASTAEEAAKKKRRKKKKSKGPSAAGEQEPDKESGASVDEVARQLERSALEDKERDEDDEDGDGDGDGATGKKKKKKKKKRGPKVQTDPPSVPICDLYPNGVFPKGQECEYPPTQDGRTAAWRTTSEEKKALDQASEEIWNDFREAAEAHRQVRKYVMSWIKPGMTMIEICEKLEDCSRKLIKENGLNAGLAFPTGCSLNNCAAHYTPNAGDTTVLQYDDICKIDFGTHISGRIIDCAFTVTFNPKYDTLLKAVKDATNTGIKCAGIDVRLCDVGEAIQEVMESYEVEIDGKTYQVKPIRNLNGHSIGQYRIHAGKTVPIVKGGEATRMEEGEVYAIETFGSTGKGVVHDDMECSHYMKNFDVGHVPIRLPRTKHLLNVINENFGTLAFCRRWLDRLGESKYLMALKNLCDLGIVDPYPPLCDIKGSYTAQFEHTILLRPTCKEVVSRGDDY
Description: Compounds are tested for their capacity to inhibit recombinant human MetAP2 activity using the following assay.
Human recombinant MetAP2 expressed in Sf9 cells followed by affinity purification and EDTA treatment to remove endogenous active site cation was dialysed against MnCl2 to produce the manganese enzyme used in the assay. The assay was carried out for 30 minutes at 25° C. in 50 mM HEPES buffer containing 100 mM NaCl, pH 7.5 the presence of 0.75 mM Methionine-Alanine-Serine (MAS) substrate and 50 μg/ml amino acid oxidase using a dilution of purified MetAP2 giving >3-fold signal: noise. Cleavage of the substrate by MetAP2 and oxidation of free methionine by amino acid oxidase was detected and quantified using fluorescence generated by Amplex red (10-acetyl-3,7-dihydroxyphenoxazine) in combination with horseradish peroxidase which detects H2O2 released during the oxidation step. The fluorescent signal was detected using a multiwell fluorimeter. Compounds were diluted in DMSO prior to addition to assay buffer, the final DMSO concentration in the assay being 1%.
IC50 values are calculated using the XLfit software package (version 2.0.5).

| SMILES | pIC50 |
| --- | --- |
| CCN1CCC[C@@H]1C(=O)NCc1cc(F)ccc1S(=O)(=O)Nc1ccc2c(c1C(=O)O)OC[C@@H]1C[C@H]21 (mixture of isomers) [(1aRS,7bSR)-5-(2-{[((R)-1-Ethylpyrrolidine-2-yl)carbonyl-amino]methyl}-4-fluorobenzenesulfonylamino)-1,1a,2,7b-tetrahydrocyclopropa[c]chromene-4-carboxylic acid] | 6.30 to 7.30 |
| CCN1CC[C@@H](C(=O)NCc2cc(F)ccc2S(=O)(=O)Nc2ccc3c(c2C(=O)O)OC[C@@H]2C[C@H]32)C1 (mixture of isomers) [(1aRS,7bSR)-5-(2-{[((R)-1-Ethylpyrrolidine-3-carbonyl)amino]-methyl}-4-fluoro-benzenesulfonylamino)-1,1a,2,7b-tetrahydro-cyclopropa[c]chromene-4-carboxylic acid] | 6.30 to 7.30 |
| CCN1CC[C@@H](Cc2cc(F)ccc2S(=O)(=O)Nc2ccc3c(c2C(=O)O)OC[C@@H]2C[C@H]32)C1 (mixture of isomers) [(1aRS,7bSR)-5-[2-((R)-1-Ethylpyrrolidin-3-ylmethyl)-4-fluorobenzenesulfonyl-amino]-1,1a,2,7b-tetrahydro-cyclopropa[c]chromene-4-carboxylic acid] | > 7.30 |
| CCN1CC[C@H](Cc2cc(F)ccc2S(=O)(=O)Nc2ccc3c(c2C(=O)O)OC[C@@H]2C[C@H]32)C1 (mixture of isomers) [(1aRS,7bSR)-5-[2-((S)-1-Ethyl-pyrrolidin-3-ylmethyl)-4-fluorobenzenesulfonyl-amino]-1,1a,2,7b-tetrahydrocyclopropa[c]chromene-4-carboxylic acid] | 6.30 to 7.30 |
| CCN1CCC[C@@H]1CCNc1ccccc1S(=O)(=O)Nc1ccc2c(c1C(=O)O)OC[C@@H]1C[C@H]21 (mixture of isomers) [(1aRS,7bSR)-5-{2-[2-((R)-1-Ethylpyrrolidin-2-yl)ethylamino]-benzenesulfonyl-amino}-1,1a,2,7b-tetrahydrocyclopropa-[c]chromene-4-carboxylic acid] | > 7.30 |
| CCN1CC[C@@H](CCNc2ccccc2S(=O)(=O)Nc2ccc3c(c2C(=O)O)OC[C@@H]2C[C@H]32)C1 (mixture of isomers) [(1aRS,7bSR)-5-{2-[2-((R)-1-Ethylpyrrolidin-3-yl)ethylamino]-benzenesulfonylamino}-1,1a,2,7b-tetrahydrocyclopropa-[c]chromene-4-carboxylic acid] | 6.30 to 7.30 |
| CCN1CC[C@@H](NCCc2cc(F)ccc2S(=O)(=O)Nc2ccc3c(c2C(=O)O)OC[C@@H]2C[C@H]32)C1 (mixture of isomers) [(1aRS,7bSR)-5-{2-[2-((R)-1-Ethylpyrrolidin-3-ylamino)ethyl]-4-fluoro-benzenesulfonylamino}-1,1a,2,7b-tetrahydrocyclopropa-[c]chromene-4-carboxylic acid] | 6.30 to 7.30 |
| CCN1CCC[C@H]1CCNc1ccccc1S(=O)(=O)Nc1ccc2c(c1C(=O)O)OC[C@@H]1C[C@H]21 (mixture of isomers) [(1aRS,7bSR)-5-{2-[2-((S)-1-Ethylpyrrolidin-2-yl)ethylamino]-benzenesulfonyl-amino}-1,1a,2,7b-tetrahydrocyclopropa-[c]chromene-4-carboxylic acid] | > 7.30 |
| CCN1CCC[C@@H]1C(=O)N(C)Cc1cc(F)ccc1S(=O)(=O)Nc1ccc2c(c1C(=O)O)OCC1CC21 (mixture of isomers) [(1aRS,7bSR)-5-(2-{N-[((R)-1-Ethylpyrrolidine-2-yl)carbonyl]-N-methylaminomethyl}-4-fluorobenzenesulfonylamino)-1,1a,2,7b-tetrahydrocyclopropa[c]chromene-4-carboxylic acid] | 6.30 to 7.30 |
| CCN1CC[C@H](C(=O)NCc2cc(F)ccc2S(=O)(=O)Nc2ccc3c(c2C(=O)O)OCC2CC32)C1 (mixture of isomers) [(1aRS,7bSR)-5-(2-{[((S)-1-ethylpyrrolidine-3-carbonyl)amino]methyl}-4-fluoro-benzenesulfonylamino)-1,1a,2,7b-tetrahydrocyclopropa[c]chromene-4-carboxylic acid] | 6.30 to 7.30 |
| CCNC/C=C\c1cc(F)ccc1S(=O)(=O)Nc1ccc2c(c1C(=O)O)OC[C@@H]1C[C@H]21 (racemic) [(1aRS,7bSR)-5-[2((Z)-3-Ethylaminoprop-1-enyl)-4-fluoro-benzenesulfonylamino]-1,1a,2,7b-tetrahydrocyclopropa-[c]chromene-4-carboxylic acid] | > 7.30 |
| CCN1CC(c2cc(F)ccc2S(=O)(=O)Nc2ccc3c(c2C(=O)O)OC[C@@H]2C[C@H]32)C1 (racemic) [(1aRS,7bSR)-5-[2-(1-Ethylazetidin-3-yl)-4-fluorobenzene-sulfonylamino]-1,1a,2,7b-tetrahydro-cyclopropa[c]chromene-4-carboxylic acid] | 6.30 to 7.30 |

The next lines start with the values.

| pIC50 | SMILES |
| --- | --- |
| 6.30 to 7.30 | CCN1CC[C@H](CCNc2ccccc2S(=O)(=O)Nc2ccc3c(c2C(=O)O)OC[C@@H]2C[C@H]32)C1 (mixture of isomers) [(1aRS,7bSR)-5-{2-[2-((S)-1-Ethylpyrrolidin-3-yl)ethylamino]-benzenesulfonyl-amino}-1,1a,2,7b-tetrahydrocyclopropa-[c]chromene-4-carboxylic acid] |
| 6.30 to 7.30 | CCN1CC[C@@H](Nc2ccccc2S(=O)(=O)Nc2ccc3c(c2C(=O)O)OC[C@@H]2C[C@H]32)C1 (mixture of isomers) [(1aRS,7bSR)-5-{2-[((R)-1-Ethylpyrrolidin-3-yl)amino]-benzenesulfonylamino}-1,1a,2,7b-tetrahydrocyclopropa-[c]chromene-4-carboxylic acid] |
| 6.30 to 7.30 | CCN1CC[C@H](CNc2ccccc2S(=O)(=O)Nc2ccc3c(c2C(=O)O)OC[C@@H]2C[C@H]32)C1 (mixture of isomers) [(1aRS,7bSR)-5-{2-[((R)-1-Ethylpyrrolidin-3-ylmethyl)amino]-benzenesulfonylamino}-1,1a,2,7b-tetrahydrocyclopropa-[c]chromene-4-carboxylic acid] |
| > 7.30 | CCN1CCCC1C(=O)NCc1cc(F)ccc1S(=O)(=O)Nc1ccc2c(c1C(=O)O)OCC1CC21 (mixture of isomers) [(1aRS,7bSR)-5-{2-[((S)-1-Ethylpyrrolidin-2-yl)cabonyl-aminomethyl]-4-fluorobenzenesulfonylamino}-1,1a,2,7b-tetrahydrocyclopropa[c]chromene-4-carboxylic acid] |
| 6.30 to 7.30 | CCN1CC[C@H](Nc2ccccc2S(=O)(=O)Nc2ccc3c(c2C(=O)O)OC[C@@H]2C[C@H]32)C1 (mixture of isomers) [(1aRS,7bSR)-5-{2-[((S)-1-Ethylpyrrolidin-3-yl)amino]-benzenesulfonylamino}-1,1a,2,7b-tetrahydrocyclopropa-[c]chromene-4-carboxylic acid] |
| 6.30 to 7.30 | CCN1CC[C@H](NC(=O)Cc2cc(F)ccc2S(=O)(=O)Nc2ccc3c(c2C(=O)O)OC[C@@H]2C[C@H]32)C1 (mixture of isomers) [(1aRS,7bSR)-5-{2-[((S)-1-Ethylpyrrolidin-3-ylcarbamoyl)-methyl]-4-fluoro-benzenesulfonyl-amino}-1,1a,2,7b-tetrahydrocyclopropa-[c]chromene-4-carboxylic acid] |
| 6.30 to 7.30 | CCN1CC[C@@H](CNc2ccccc2S(=O)(=O)Nc2ccc3c(c2C(=O)O)OC[C@@H]2C[C@H]32)C1 (mixture of isomers) [(1aRS,7bSR)-5-{2-[((S)-1-Ethylpyrrolidin-3-ylmethyl)amino]-benzenesulfonylamino}-1,1a,2,7b-tetrahydrocyclopropa-[c]chromene-4-carboxylic acid] |
